Each structure is given as a SMILES string.

This is an account of results in patent US20160279095A1, “USE OF NUTRITIONAL COMPOSITIONS INCLUDING NATURAL VITAMIN E, AND POLYUNSATURATED FATTY ACID” (ABBOTT LABORATORIES, priority 2013, published 2016).

This test concerns Primary cortical neurons. Description: DHA peroxidation in primary cortical neurons, MDA levels measured by LC-MS. The format is cell-based, Sprague-Dawley rat. To be noted: for MDA concentration (DHA peroxidation): by LCMS/MS. How it is done:
Primary cortical neurons from postnatal day 3-5 (P3-P5) Sprague-Dawley rat pup's brain were pretreated with/without natural vitamin E in the form of RRR-a-tocopherol (15 μM or 45 μM), and/or lutein (0.32 nM or 0.5 nM) individually and in combination for 12 hours. (Note that μM is used to refer to a micromolar concentration and nM is used to refer to a nanomolar concentration and concentrations refer to those reached in the test tubes containing the cortical neurons.) After 12 hours DHA (90 μM) was added for an additional 12 hours. After 12 hours samples were washed in PS and neurons were lysed. Peroxides generated from DHA and incorporated into the neuronal cell membrane were assessed by measuring the MDA levels using liquid chromatography-mass spectometry (LC-MS) method.

As for `CC/C=C\C/C=C\C/C=C\C/C=C\C/C=C\C/C=C\CCC(=O)O` [DHA, docosahexaenoic acid], the “MDA concentration (DHA peroxidation)” value (DHA 90 μM for 12 hours, without either RRR alpha tocopherol or lutein) is given as “about 110”. As to `Cc1c(C)c2c(c(C)c1O)CC[C@@](C)(CCC[C@H](C)CCC[C@H](C)CCCC(C)C)O2` [RRR alpha tocopherol, RRR-alpha tocopherol], the “MDA concentration (DHA peroxidation)” value runs as follows: (15 μM RRR alpha tocopherol pretreatment 12 hours, then DHA 90 μM 12 hours) “about 75%”; (45 μM RRR alpha tocopherol pretreatment 12 hours, then DHA 90 μM 12 hours, p<0.001) “about 57%”. For the molecule `CC1=C[C@H](O)CC(C)(C)[C@H]1/C=C/C(C)=C/C=C/C(C)=C/C=C/C=C(C)/C=C/C=C(C)/C=C/C1=C(C)C[C@@H](O)CC1(C)C` [lutein], the “effect on retarding DHA peroxidation” value (lutein alone, without RRR alpha tocopherol, then DHA 90 μM) is “essentially no effect”.
